Laboratory results reported in patent publication US4738968A, “1,8-naphthyridine derivatives useful as anti-bacterial agents” (Dainippon Pharmaceutical Co., Ltd., priority 1985, dated 1988).
Values after ≈ are worked out from the molar mass of the structure shown.

Key:
[1] = test system: Streptococcus pyogenes A65; assay: In vivo efficacy against systemic infection in mice, S. pyogenes A65; parameters: species or system mice (ddY-S); details: A65, 168 h, intraperitoneal infection 3×10^7 cells, drug iv twice, immediately and 6 hours after infection, 7 days observation, calculated for free base, read-out: median effective dose (ED50)
Method: Compounds were each dissolved in deionized water. Each of the solutions was intravenously (iv) administered to mice infected by each of the test organisms under the conditions shown hereinbelow, and the median effective dose (ED50) was calculated by probit analysis. The numerals in the table show ED50 (mg/kg) value, caluclated for free base. Experimental conditions: Mice: Male mice (ddY-S) weighing about 20 g Infection: Streptococcus pyogenes […] Intraperitoneal infection with 3×10^7 cells per mouse suspended in brain heart infusion broth. Medication: Twice, immediately and 6 hours after infection. Observation: For 14 days in the case of Staphylococcus aureus 50774. For 7 days in the case of Streptococcus pyogenes […].

[2] = test system: Staphylococcus aureus 50774; assay: In vivo efficacy against systemic infection in mice, S. aureus 50774; parameters: species or system mice (ddY-S); details: Staphylococcus aureus, 50774, 336 h, iv infection 5×10^8 cells, drug iv twice, immediately and 6 hours after infection, 14 days observation, calculated for free base, read-out: median effective dose (ED50)
Method: Compounds were each dissolved in deionized water. Each of the solutions was intravenously (iv) administered to mice infected by each of the test organisms under the conditions shown hereinbelow, and the median effective dose (ED50) was calculated by probit analysis. The numerals in the table show ED50 (mg/kg) value, caluclated for free base. Experimental conditions: Mice: Male mice (ddY-S) weighing about 20 g Infection: Staphylococcus aureus 50774 Intravenous infection with 5×10^8 cells per mouse suspended in saline. Medication: Twice, immediately and 6 hours after infection. Observation: For 14 days in the case of Staphylococcus aureus 50774. For 7 days in the case of Streptococcus pyogenes […].

K. pneumoniae 13 = assay: In vitro antibacterial activity, twofold agar-dilution MIC; assay type: cell-based; details: Klebsiella pneumoniae; K. pneumoniae 13, Gram -; calculated for free base; 20-hour incubation at 37° C; read-out: minimum inhibitory concentration (MIC)
Method: (§1) The antibacterial activity in vitro is show in Table 1. The numbers in the table show minimum inhibitory concentrations (MIC) (μg/ml), calculated for free base. The minimum inhibitory concentration was determined by the twofold agar-dilution method, which was recommended by Japan Society of Chemotherapy (Chemotherapy, 29(1), 76(1981)), using Muller-Hinton agar. One loopful of an overnight culture of test organisms in Mueller-Hinton broth was inoculated onto 10-ml drug-containing agar layers in petri dishes. Bacterial inocula contained approximately 10^6 colonyl-formingunits. Bacterial growth was observed after 20-hour incubation at 37° C. The MIC was defined as the lowest drug concentration which prevented visible bacterial growth.

S. epidermidis 8 = assay: as above; assay type: cell-based; details: Staphylococcus epidermidis; S. epidermidis 8, Gram +; calculated for free base; 20-hour incubation at 37° C; read-out: minimum inhibitory concentration (MIC)
Method: as §1

P. rettgeri IFO 3850 = assay: as above; assay type: cell-based; details: Providencia rettgeri, IFO3850; P. rettgeri IFO 3850, Gram -; calculated for free base; 20-hour incubation at 37° C; read-out: minimum inhibitory concentration (MIC)
Method: as §1

M. lacunata P-7102 = assay: as above; assay type: cell-based; details: M. lacunata P-7102, Gram -; calculated for free base; 20-hour incubation at 37° C; read-out: minimum inhibitory concentration (MIC)
Method: as §1

S. pyogenes A65 = assay: as above; assay type: cell-based; details: Streptococcus pyogenes; S. pyogenes A65, Gram +; calculated for free base; 20-hour incubation at 37° C; read-out: minimum inhibitory concentration (MIC)
Method: as §1

E. coli P-51209 = assay: as above; assay type: cell-based; details: Escherichia coli, P51209; E. coli P-51209, Gram -; calculated for free base; 20-hour incubation at 37° C; read-out: minimum inhibitory concentration (MIC)
Method: as §1

S. aureus 50774 = assay: as above; assay type: cell-based; details: Staphylococcus aureus; S. aureus 50774, Gram +; calculated for free base; 20-hour incubation at 37° C; read-out: minimum inhibitory concentration (MIC)
Method: as §1

S. aureus 80 = assay: as above; assay type: cell-based; details: Staphylococcus aureus; S. aureus 80, Gram +; calculated for free base; 20-hour incubation at 37° C; read-out: minimum inhibitory concentration (MIC)
Method: as §1

E. coli P-5101 = assay: as above; assay type: cell-based; details: Escherichia coli, P5101; E. coli P-5101, Gram -; calculated for free base; 20-hour incubation at 37° C; read-out: minimum inhibitory concentration (MIC)
Method: as §1

S. aureus Smith = assay: as above; assay type: cell-based; details: Staphylococcus aureus, Gram +, calculated for free base, 20-hour incubation at 37° C, read-out: minimum inhibitory concentration (MIC)
Method: as §1

E. coli P-51208 = assay: as above; assay type: cell-based; details: Escherichia coli, P51208; E. coli P-51208, Gram -; calculated for free base; 20-hour incubation at 37° C; read-out: minimum inhibitory concentration (MIC)
Method: as §1

Solubility in water = assay type: physicochemical; details: distilled water, 25° C overnight
Method: The sample was added to distilled water (10 ml) and the solution was shaken in the supersaturated state for 30 minutes. After incubation at 25° C. overnight, the solution was filtered with a microfilter. The filtrate was diluted with 0.1 N hydrochloric acid. The absorbance at 270 nm of the solution was measured and the concentration (μg/ml) of the sample was calculated from a calibration curve separately prepared.

MIC (K. pneumoniae 13) [µg/mL] | MIC (S. epidermidis 8) [µg/mL] | MIC (P. rettgeri IFO 3850) [µg/mL] | MIC (M. lacunata P-7102) [µg/mL] | MIC (S. pyogenes A65) [µg/mL] | MIC (E. coli P-51209) [µg/mL] | MIC (S. aureus 50774) [µg/mL] | MIC (S. aureus 80) [µg/mL] | MIC (E. coli P-5101) [µg/mL] | MIC (S. aureus Smith) [µg/mL] | MIC (E. coli P-51208) [µg/mL] | solubility (Solubility in water) [µg/mL] | SMILES | ED50 [1] [mg/kg] | ED50 [2] [mg/kg]
0.05 | 0.0125 | 0.05 | 3.13 | 0.025 | 0.78 | 0.025 | 0.0125 | 0.0125 | 0.025 | 0.78 |  | Cl.NC[C@@H]1CN(c2nc3c(cc2F)c(=O)c(C(=O)O)cn3C2CC2)C[C@@H]1Cl (relative stereo) [2-cis.HCl, 7-(cis-3-aminomethyl-4-chloro-1-pyrrolidinyl)-1-cyclopropyl6-fluoro-1,4-dihydro-4-oxo-1,8-naphthyridine-3-carboxylic acid hydrochloride] | 0.235 | 0.355
 |  |  |  |  |  |  |  |  |  |  | 789 (≈ 2090 µM) | CNC[C@@H]1CN(c2nc3c(cc2F)c(=O)c(C(=O)O)cn3C2CC2)C[C@@H]1F (relative stereo) [3-cis, 1-cyclopropyl-6-fluoro-7-(cis-4-fluoro-3-methylaminomethyl-1-pyrrolidinyl)-1,4-dihydro-4-oxo-1,8-naphthyridine-3-carboxylic acid] |  | 
0.05 | 0.0125 | 0.05 | 3.13 | 0.05 | 0.78 | 0.025 | 0.0125 | 0.0125 | 0.025 | 0.78 |  | CCNC[C@@H]1CN(c2nc3c(cc2F)c(=O)c(C(=O)O)cn3C2CC2)C[C@H]1F.Cl (relative stereo) [4-trans.HCl, 1-cyclopropyl-7-(trans-3-ethylaminomethyl-4-fluoro-1-pyrrolidinyl)-6-fluoro-1,4-dihydro-4-oxo-1,8-naphthyridine-3-carboxylic acid hydrochloride] | 0.267 | 
 |  |  |  |  |  |  |  |  |  |  | 927 (≈ 2540 µM) | NC[C@@H]1CN(c2nc3c(cc2F)c(=O)c(C(=O)O)cn3C2CC2)C[C@@H]1F (relative stereo) [Compound No. 1-cis, 7-(cis-3-aminomethyl-4-fluoro-1-pyrrolidinyl)-1-cyclopropyl-6-fluoro-1,4-dihydro-4-oxo-1,8-naphthyridine-3-carboxylic acid] |  | 
0.05 | 0.0125 | 0.05 | 6.25 | 0.0125 | 0.78 | 0.025 | 0.025 | 0.0125 | 0.025 | 0.78 |  | Cl.NC[C@@H]1CN(c2nc3c(cc2F)c(=O)c(C(=O)O)cn3C2CC2)C[C@@H]1F (relative stereo) [Compound No. 1-cis.HCl, 7-(cis-3-aminomethyl-4-fluoro-1-pyrrolidinyl)-1-cyclopropyl-6-fluoro-1,4-dihydro-4-oxo-1,8-naphthyridine-3-carboxylic acid hydrochloride] | 0.365 | 0.274
0.05 | 0.0125 | 0.05 | 3.13 | 0.025 | 0.78 | 0.025 | 0.025 | 0.0063 | 0.025 | 0.78 |  | Cl.NC[C@@H]1CN(c2nc3c(cc2F)c(=O)c(C(=O)O)cn3C2CC2)C[C@H]1F (relative stereo) [Compound No. 1-trans.HCl, 7-(trans-3-aminomethyl-4-fluoro-1-pyrrolidinyl)-1-cyclopropyl-6-fluoro-1,4-dihydro-4-oxo-1,8-naphthyridine-3carboxylic acid hydrochloride] |  | 
 |  |  |  |  |  |  |  |  |  |  | 713 (≈ 1870 µM) | NC[C@@H]1CN(c2nc3c(cc2F)c(=O)c(C(=O)O)cn3C2CC2)C[C@@H]1Cl (relative stereo) [Compound No. 2-cis, 7-(cis-3-aminomethyl-4-chloro-1-pyrrolidinyl)-1-cyclopropyl-6-fluoro-1,4-dihydro-4-oxo-1,8-naphthyridine-3-carboxylic acid] |  | 
0.39 | 0.1 | 0.78 | 50 | 0.39 | 12.5 | 0.2 | 0.39 | 0.39 | 0.1 | 6.25 |  | CCn1cc(C(=O)O)c(=O)c2cc(F)c(N3CCC(CN)C3)nc21.Cl (stereo not drawn) [Compound A, 7-(3-aminomethyl-1-pyrrolidinyl)-1-ethyl-6-fluoro-1,4-dihydro-4-oxo-1,8-naphthyridine-3-carboxylic acid hydrochloride, reference compound] | 3.75 | 2.79
0.1 | 0.025 | 0.1 | 12.5 | 0.05 | 3.13 | 0.025 | 0.05 | 0.025 | 0.05 | 3.13 |  | Cl.NCC1CCN(c2nc3c(cc2F)c(=O)c(C(=O)O)cn3C2CC2)C1 (stereo not drawn) [Compound B, 7-(3-aminomethyl-1-pyrrolidinyl)-1-cyclopropyl-6-fluoro-1,4-dihydro-4-oxo-1,8-naphthyridine-3-carboxylic acid hydrochloride, reference compound] | 0.601 | 0.701
